Measured values from patent US20260077009A1, “COMPOSITIONS AND METHODS FOR TREATING NEUROLOGICAL DISORDERS” (Neurotech International Ltd, priority 2021, published 2026).

How the values were obtained:
[1] = Stability of NTI164 in oil at room temperature (UPLC, weekly assay, CBDA as marker)
IL-12 = test: Multiplex cytokine/chemokine assay, IL-12; assay type: cell-based, human; details: 2 μg/ml; Interleukin and Interferon activation; control 99.91
Experimental: (§1) Multiplex Cytokine/Chemokine Assay: Microglia media harvested following treatment initiation was centrifuged briefly to remove particulates (300 g for 10 min). Cytokine and chemokine levels in the microglial media were measured using a Bio-Plex 200 with a 96-well magnetic plate assay according to the manufacturer's instructions (Bio-Rad). Cytokines and chemokines measured included IL-1α, IL-1β, IL-2, IL-6, IL-10, IL-12 (p70), IL-13, G-CSF, GM-CSF, IFNγ, TNFα, CXCL1 (KC), CCL2 (MCP-1), and CCL5 (RANTES). All samples were run in duplicate and data were analyzed with the Bio-Plex Manager software.
(§2) The tubes are then placed in a sonication bath for 10 mins at 35-40 C. Upon completion of the sonication samples are then placed in a tray shaker (200 rpm) for 30 minutes at room temperature. Once completed the samples are then centrifuged at 4400 rpm for 5 minutes. The supernatant is collected for testing and development.
(§3) For the CBD sample, a pure standard (in powder form) was used. CBD 98% isolate was purchased as a reference standard from LGC Standards (London UK) (CAS No. 13956-29-1). The CBD standard reference was prepared at concentration of 1 mg/ml (in acetonitrile). CBD dilutions were made in acetonitrile as follows: 2 μg/ml; 6 μg/ml; and 0.1 μg/ml.

TNF-alpha = test: Multiplex cytokine/chemokine assay, TNF-alpha; assay type: cell-based, human; details: 2 μg/ml; Interleukin and Interferon activation
Experimental: as §1, §2, §3

COX-2 = COX-2 immunohistochemistry (protein level) assay in microglial cells; assay type: cell-based, human; details: 2 μg/ml, N=9
Experimental: Immunohistochemistry (Protein Level) Assay: Cells were fixed for 10 min with 4% paraformaldehyde (PFA) in PBS. After 3×5 minutes washing with PBS, cells were incubated with primary antibodies (anti-COX2) 1:1000 overnight at 4° C., and after 3×5 minutes washing in PBS, cells were then incubated in appropriate fluorescent secondary antibody 1:250 (Invitrogen) for 2 hours at room temperature. After a final wash, as previous, cells nuclei were sained with DAPI in the mounting media. Photomicrographs were taken of the cells in three fields of view per well from duplicate wells and analysed using Fiji for area coverage of each marker.
as §2, §3

neurons = test: Cell death in an excitotoxic cell injury paradigm; assay type: cell-based; details: excitotoxic cell injury paradigm (glutamate 3 mM); 2 μg/ml
Experimental: Neuronal viability was quantified using MTT [3-(4,5-dimethylthiazol-2-yl-)-2,5-diphenyl-2H-tetrazolium bromide; Sigma]. […] Cellular excitotoxicity was achieved via glutamate activation (3 mM).

Row | SMILES | Cannabinoid concentration in NTI164 (sample 28206-7) ([1]; Day 0 (13 Jul. 2021)) [mg/mL] | Cannabinoid concentration in NTI164 (sample 28206-7) ([1]; Day 2 (15 Jul. 2021)) [mg/mL] | Cannabinoid concentration in NTI164 (sample 28206-7) ([1]; Day 7 (20 Jul. 2021)) [mg/mL] | Cannabinoid concentration in NTI164 (sample 28206-7) ([1]; Day 14 (29 Jul. 2021)) [mg/mL] | Cannabinoid concentration in NTI164 (sample 28206-7) ([1]; Day 28 (12 Aug. 2021)) [mg/mL] | Cannabinoid concentration in NTI164 (sample 28206-7) ([1]; Week 5 (19 Aug. 2021)) [mg/mL] | Cannabinoid concentration in NTI164 (sample 28206-7) ([1]; Week 6 (27 Aug. 2021)) [mg/mL] | Cannabinoid concentration in NTI164 (sample 28206-7) ([1]; Week 32 (12 Sep. 2022)) [mg/mL] | IL-12, Average +/- Standard Deviation (SD) (IL-12) | TNF-alpha, Average +/- Standard Deviation (SD) (TNF-alpha) | COX-2 expression, Avg +/- SEM (COX-2; exposure 1 hour after inflammatory insult (Interleukin and Interferon gamma), positive control 104.26) | COX-2 expression, Avg +/- SEM (COX-2; exposure 1 hour prior to inflammatory insult (Interleukin and Interferon gamma), positive control 94.47) | Cell death / toxicity (neurons)
1 | CCCCCc1cc2c(c(O)c1C(=O)O)[C@@H]1C=C(C)CC[C@H]1C(C)(C)O2 [(Tetrahydrocannabinolic acid) (D9-THCA), Tetrahydrocannabinolic acid] | 0.66 | 0.72 | 0.64 | 0.69 | 0.36 | 0.79 | 0.73 | <0.1 |  |  |  |  | 
2 | C=C(C)[C@@H]1CCC(C)=C[C@H]1c1c(O)cc(CCCCC)cc1O [CBD, Cannabidiol, reference compound] | 0.46 | 0.56 | 0.53 | 0.56 | 0.54 | 0.60 | 0.51 | 0.48 | 84.40 +/− 6.54 | 71.13 +/− 12.81 | 76.32 +/− 7.95 (SEM) | 84.82 +/− 7.65 (SEM) | toxic
3 | CCCCCc1cc(O)c2c(c1)OC(C)(CCC=C(C)C)C=C2 (stereo not drawn) [Cannabichrome (CBC), Cannabichrome] | 1.23 | 1.19 | 1.34 | 1.22 | 1.27 | 1.20 | 1.15 | 1.22 |  |  |  |  | 
4 | C=C(C)[C@@H]1CCC(C)=C[C@H]1c1c(O)cc(CCCCC)c(C(=O)O)c1O [Cannabidiol acid (CBD-A), Cannabidiol acid] | 48.16 | 48.19 | 48.62 | 48.09 | 47.12 | 48.35 | 47.56 | 47.01 |  |  |  |  | 
5 | C=C(C)[C@@H]1CCC(C)=C[C@H]1c1c(O)cc(CCC)cc1O [Cannabidivarin (CBDV), Cannabidivarin] | <0.1 | <0.1 | <0.1 | <0.1 | <0.1 | 0.10 | <0.1 | 0.13 |  |  |  |  | 
6 | CCCCCc1cc(O)c(C/C=C(\C)CCC=C(C)C)c(O)c1 [Cannabigerol (CBG), Cannabigerol] | 5.21 | 5.23 | 5.14 | 5.1 | 5.1 | 5.30 | 5.28 | 5.12 |  |  |  |  | 
7 | CCCCCc1cc(O)c(C/C=C(\C)CCC=C(C)C)c(O)c1C(=O)O [Cannabigerol Acid(CBG-A), Cannabigerol Acid] | 1.07 | 1.18 | 1.20 | 1.19 | 0.81 | 1.08 | 1.00 | 1.05 |  |  |  |  | 
8 | CCCCCc1cc(O)c2c(c1)OC(C)(C)c1ccc(C)cc1-2 [Cannabinol (CBN), Cannabinol] | 2.32 | 2.54 | 2.48 | 2.33 | 2.56 | 2.22 | 2.27 | 2.21 |  |  |  |  | 
9 | CCCCCc1cc(O)c2c(c1)OC(C)(C)[C@@H]1CC=C(C)C[C@@H]21 [DELTA-8-THC (D8-THC), DELTA-8-THC] | <0.1 | <0.1 | <0.1 | <0.1 | <0.1 | <0.1 | <0.1 | <0.1 |  |  |  |  | 
10 | CCCCCc1cc(O)c2c(c1)OC(C)(C)[C@@H]1CCC(C)=C[C@@H]21 [Tetrahydrocannabinol (D9-THC), Tetrahydrocannabinol] | <0.1 | <0.1 | <0.1 | <0.1 | <0.1 | 0.14 | <0.1 | 0.11 |  |  |  |  | 
11 | CCCc1cc(O)c2c(c1)OC(C)(C)[C@@H]1CCC(C)=C[C@@H]21 [Tetrahydrocannabivarin (THCV), Tetrahydrocannabivarin] | <0.1 | <0.1 | <0.1 | <0.1 | <0.1 | <0.1 | <0.1 | <0.1 |  |  |  |  | 
